The METLIN SMRT retention time set (Domingo-Almenara et al. 2019)

Assay: gradient 5% acetonitrile 3 min, to 50% in 2 min, to 85% in 15 min, held 3 min, 100 µL/min
Details: column: Zorbax Extend-C18 2.1 x 50 mm; eluents: water / acetonitrile, 0.1% formic acid
How it was run: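 Using water and acetonitrile that each contained 0.1% formic acid, mixtures of ~100 pure standards were separated at 100 μL/min on a Zorbax Extend-C18 column (2.1 × 50 mm, 1.8 μm). The HPLC fed a quadrupole time-of-flight mass spectrometer working in positive and negative ionization mode, with dead and dwell volumes of 40 μL and 900 μL. Data were acquired over 3 months. Retention time was read from computationally picked adduct peaks after manual inspection of each.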

| Structure (SMILES) | RP-LC retention time [s] |
| --- | --- |
| O=C(Cc1cccc(F)c1)Nc1ccc2c(c1)CCC(=O)N2 | 650 |
| O=C(c1cccnc1)N1CCc2c([nH]c3ccccc23)C1c1ccc(Cl)cc1 (stereo not drawn) | 998 |
| CC1(C(=O)NCc2ccccc2)Oc2cccnc2NC1=O (stereo not drawn) | 638 |
| Cn1nc(CNC(=O)c2ccc3c(c2)OCO3)c2ccccc21 | 760 |
| COc1ccc(-c2csc(Cc3nc(-c4ccc(C)cc4)no3)n2)cc1 | 1240 |
| CCCS(=O)(=O)N1CCCN(C2=NS(=O)(=O)C(c3ccc(Cl)cc3)=C2C)CC1 | 934 |
| COc1c(C(=O)NC(C)C)sc2cc(Cl)ccc12 | 1060 |
| COc1cc2[nH]c3c(SCC(=O)N4CCc5ccccc5C4)ncnc3c2cc1OC | 744 |
| COc1ccccc1CNc1ccc(-c2nc(-c3cccc(F)c3)no2)cn1 | 1230 |
| Cc1cnc(C(=O)N2CC(c3nc(CCOCC4CC4)no3)C2)cn1 | 706 |
| CCOc1ccc(-n2nnc(C(=O)Nc3cccc(Cl)c3C)c2C)cc1 | 1120 |
| CC(C)Cc1csc(-c2csc(S(=O)(=O)NCc3ccc(F)cc3F)c2)n1 | 1160 |
| N#Cc1ccccc1OCC(O)CNCCNC(=O)Nc1ccccc1 (stereo not drawn) | 696 |
| O=C(Cc1nnc2c(-c3nc(C4CC4)no3)cccn12)N1CCOCC1 | 609 |
| O=C(c1cccs1)N1CCC(F)(C(=O)NC2CC2)CC1 | 634 |
| CCc1ccc(NC(=O)c2sc3nc(C)nc(N4CCN(c5ccccn5)CC4)c3c2C)cc1 | 779 |
| CN1CCN(CCNC(=O)CN2C(=O)C3CCCCN3c3ccc(C(=O)N(C)C)cc32)CC1 (stereo not drawn) | 578 |
| CCc1nc2cc(N3CCCC(C(=O)NCc4cccnc4)C3)cnc2nc1CC (stereo not drawn) | 600 |
| CCOCCCNC(=O)CC1CCN(c2ccnc(OC)n2)CC1 | 574 |

| Structure (SMILES) | RP-LC retention time [s] |
| --- | --- |
| O=c1[nH]c2ccccc2c2ccccc12 | 806 |
| CCN1C(=O)COc2ccc(-c3noc(-c4ccc(C)c(C)c4)n3)cc21 | 1300 |
| CC(C)n1nnc2ccc(-c3noc(-c4ccc(F)cc4)n3)cc21 | 1140 |
| O=C(Cc1ccsc1)N1CCC2(CC1)N=C(c1cccc(Br)c1)NO2 | 889 |
| Cc1ccc(-c2cc3c(=O)n(Cc4noc(CN5CCOCC5)n4)ccn3n2)c(C)c1 | 792 |
| CCCNC(=O)CCc1nc2ccccc2n(CC(=O)Nc2ccc(OCC)cc2)c1=O | 788 |
| CC(=O)Nc1nsc(N2CCC(C(=O)NCc3ccc(F)cc3)CC2)n1 | 649 |
| CC(=O)Nc1ccc(-n2cnc(C(=O)N3CCN(c4ccc(Cl)cc4)CC3)c2)nc1 | 751 |
| COC(=O)c1cc(C)nc2c1c(=O)n(Cc1cccc(C)c1)c(=O)n2Cc1ccco1 | 1170 |
| CC(NC(=O)c1cn(C)c2ncccc12)c1ccccn1 (stereo not drawn) | 552 |
| COc1ccccc1CNC(=O)CSc1ccc(-c2ccccn2)nn1 | 713 |
| CC(NC(=O)C1CCCN(c2cnc3nccnc3c2)C1)c1ccccn1 (stereo not drawn) | 565 |
| O=C(CN1C(=O)NC2(CCCCC2)C1=O)Nc1cccc(F)c1 | 633 |
| COc1ccc(NC(=O)CN2C(=O)CC(C)Sc3ccccc32)c(OC)c1 (stereo not drawn) | 853 |
| CCOC(=O)Cn1c(=O)c2c(nc3n2CCN3c2ccc(OC)cc2)n(C)c1=O | 826 |
| O=C(Cn1cccc1-c1nnc(C2CC2)o1)NCCc1ccc(Cl)cc1 | 862 |
| CCc1nncn1C1CCN(S(=O)(=O)c2ccccc2C)CC1 | 686 |
| Cc1cccc(N2CCN([C@H]3CS(=O)(=O)C[C@@H]3S(=O)(=O)c3ccc(F)cc3)CC2)c1 | 941 |
| CCCCN1C(=O)C2(NCCc3c2[nH]c2ccc(OC)cc32)c2cc(Br)ccc21 (stereo not drawn) | 763 |
